IC50 data for 20 molecules are collected here from US20080085893A1, “MATRIX METALLOPROTEASE INHIBITORS” (priority 2006, published 2008).

Holding throughout (type): biochemical
Experiment [1] addresses T1, human MMP-9 (amino acids 107-446) (Homo sapiens, UniProt P14780).
T1 construct: human MMP-9 (amino acids 107-446); made in house
Briefly: MMP dose response assay for determining IC50, MMP-9. As to the method: (§1) MMP Dose Response Assay for Determining IC50
(§2) The following method was used for determining IC50 values of different inhibitor compounds against multiple MMP enzymes. Frozen stocks of recombinantly produced MMPs were prepared in assay buffer (50 mM HEPES pH 7.4, 10 mM CaCl2, 0.05% Brij-35). […] Enzyme concentrations in the assay were determined empirically and set such that proteolytic activity was maintained in a linear range over the time-course of the experiment. […] Each concentration for each test compound was tested in triplicate. MMP enzymes were equilibrated with compounds for 1 hour at room temperature, then a fluorescent-quench substrate (Acetyl-Cys(Eu)-Pro-Leu-Gly-Leu-Lys-(QSY7)-Ala-Arg-amide) was added to a final concentration of 100 nM. […] Data was analyzed by first calculating average background value from wells that contained only substrate, and this value was subtracted from the entire plate. The 100%, or maximum value, was determined by averaging control wells that contained enzyme, substrate and DMSO. For each well, the percent of control was calculated by dividing the well value by the average DMSO value obtained above.

Experiment [2] deals with T2, human MMP-1 (amino acids 100-262) (Homo sapiens, UniProt P03956).
T2 construct: human MMP-1 (amino acids 100-262); made in house
T2 sequence (P03956 100-262): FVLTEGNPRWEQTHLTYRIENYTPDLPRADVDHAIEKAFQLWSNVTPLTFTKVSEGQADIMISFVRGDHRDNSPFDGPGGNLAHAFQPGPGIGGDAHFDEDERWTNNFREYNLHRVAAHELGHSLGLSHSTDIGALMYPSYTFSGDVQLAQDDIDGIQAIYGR
The experiment in a line: MMP dose response assay for determining IC50, MMP-1. The following applies: recombinant catalytic domain, fluorescent-quench substrate 100 nM. On the procedure: as §1, §2

The target of experiment [3] is T3, human MMP-2 (amino acids 1-660) (Homo sapiens, UniProt P08253).
T3 construct: human MMP-2 (amino acids 1-660); made in house
T3 sequence (P08253 110-660): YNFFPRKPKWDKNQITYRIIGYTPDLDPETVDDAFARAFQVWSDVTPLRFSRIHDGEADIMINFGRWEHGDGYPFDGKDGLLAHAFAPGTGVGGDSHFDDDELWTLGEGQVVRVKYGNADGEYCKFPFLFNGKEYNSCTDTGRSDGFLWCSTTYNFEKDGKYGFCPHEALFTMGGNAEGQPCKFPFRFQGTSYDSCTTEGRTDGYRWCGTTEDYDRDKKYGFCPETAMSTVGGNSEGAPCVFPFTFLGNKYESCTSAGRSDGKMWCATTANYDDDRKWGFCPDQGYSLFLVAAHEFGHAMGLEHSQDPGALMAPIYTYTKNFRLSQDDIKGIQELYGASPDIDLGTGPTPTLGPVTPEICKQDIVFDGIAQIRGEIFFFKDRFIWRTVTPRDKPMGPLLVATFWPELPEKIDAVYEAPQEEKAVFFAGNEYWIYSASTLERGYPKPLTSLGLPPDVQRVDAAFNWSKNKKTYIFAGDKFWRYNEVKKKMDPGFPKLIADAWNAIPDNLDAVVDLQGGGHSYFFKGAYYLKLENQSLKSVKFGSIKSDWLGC
Briefly: MMP dose response assay for determining IC50, MMP-2. The settings on record: recombinant enzyme, fluorescent-quench substrate 100 nM; read-out: MMP-2. As to the method: as §1, §2

Where [4] appears, read: recombinant enzyme, fluorescent-quench substrate 100 nM, read-out: MMP-9.

“And” between values parts separate entries of the source, which are not always exact repeats. Equal values may be shown once. Read-outs that look alike come from different tables or passages of the source.

T1 sequence (P14780 107-446): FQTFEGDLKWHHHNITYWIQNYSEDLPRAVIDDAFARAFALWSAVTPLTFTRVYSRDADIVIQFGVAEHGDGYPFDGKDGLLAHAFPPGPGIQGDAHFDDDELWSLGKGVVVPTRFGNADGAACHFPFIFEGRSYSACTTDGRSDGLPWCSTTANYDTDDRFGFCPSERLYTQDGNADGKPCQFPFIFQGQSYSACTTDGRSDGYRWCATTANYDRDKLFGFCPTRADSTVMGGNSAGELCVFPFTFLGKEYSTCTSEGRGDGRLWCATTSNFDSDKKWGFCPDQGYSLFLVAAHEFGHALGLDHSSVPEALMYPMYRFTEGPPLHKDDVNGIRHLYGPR

Take `CS(=O)(=O)N(C[C@H](O)C(=O)NO)c1ccc(Oc2ccc(Cl)cc2)cc1` [Compound 1, N-Hydroxy (2S)-2-hydroxy-3-{N-[4-(4-chlorophenoxy)phenyl], N-methanesulfonylamino}propionamide]: the IC50 in experiment [1] (setting [4]) is 5.04 nM and 4.35 nM; in experiment [2], greater than 10 µM; in experiment [3] it was 39.5 nM and 30.3 nM.

For `CO[C@@H](CN(c1ccc(Oc2ccc(C)cc2)cc1)S(C)(=O)=O)C(=O)NO` [Compound 2, N-Hydroxy (2S)-2-methoxy-3-{N-[4-(4-methylphenoxy)phenyl], N-methanesulfonylamino}propionamide], the IC50 in experiment [1] (MMP-9 (nM)) was 3.73 nM; in experiment [1] (setting [4]) it was 4.15 nM; in experiment [2], greater than 10 µM; in experiment [3], 43.6 nM and 28.8 nM.

As for `Cc1ccc(Oc2ccc(N(C[C@H](NC(=O)C(C)C)C(=O)NO)S(C)(=O)=O)cc2)cc1` [Example 4, N-Hydroxy (2S)-3-{N-[4-(4-methylphenoxy)phenyl],N-methanesulfonylamino}-2-(2-propylcarbonylamino)propionamide], the IC50 was 4.89 nM and 6 nM in experiment [1] (setting [4]); greater than 10 µM in experiment [2]; 53 nM and 86.7 nM in experiment [3].

For `Cc1ccc(Oc2ccc(N(CC(C)(O)C(=O)NO)S(C)(=O)=O)cc2)cc1` (stereo not drawn) [Example 6, N-Hydroxy 2-hydroxy-2-methyl-3-{N-[4-(4-methylphenoxy)phenyl],N-methanesulfonylamino}propionamide], the IC50 was 7.4 nM and 7.76 nM and 7.44 nM and 4.82 nM and 2.17 nM and 3.57 nM in experiment [1] (setting [4]); 5.57 µM in experiment [2]; 19.1 nM and 22.6 nM and 29.7 nM and 16.6 nM and 18.9 nM and 14.5 nM in experiment [3].

For the molecule `CS(=O)(=O)N(C[C@@H](O)C(=O)NO)c1ccc(Oc2ccccc2)cc1` [Example 11, N-Hydroxy (2R)-2-hydroxy-3-[N-(4-phenoxy)phenyl,N-methanesulfonylamino]propionamide], the IC50 is 106 nM in experiment [1] (setting [4]), greater than 10 µM in experiment [2] and 472 nM in experiment [3].

Turning to `Cc1ccc(Oc2ccc(N(C[C@H](O)C(=O)NO)S(=O)(=O)C(C)C)cc2)cc1` [Example 16, N-Hydroxy (2S)-2-hydroxy-3-{N-[4-(4-methylphenoxy)phenyl],N-(2-propyl)sulfonylamino}propionamide], the IC50 was 286 nM in experiment [1] (setting [4]) and greater than 10 µM in experiment [2].

For `Cc1ccc(Oc2ccc(N(C[C@H](O)C(=O)NO)S(=O)(=O)N(C)C)cc2)cc1` [Example 19, N-Hydroxy (2S)-2-hydroxy-3-{N-[4-(4-methylphenoxy)phenyl],N-(dimethylamino)sulfonylamino}propionamide], the IC50 is 243 nM in experiment [1] (setting [4]) and greater than 10 µM in experiment [2].

As for `Cc1ccc(Oc2ccc(N(C[C@H](O)C(=O)NO)S(=O)(=O)c3ccccc3)cc2)cc1` [Example 21, N-Hydroxy (2S)-2-hydroxy-3-{N-[4-(4-methylphenoxy)phenyl],N-phenylsulfonylamino}propionamide], the IC50 is 344 nM in experiment [1] (setting [4]) and greater than 10 µM in experiment [2].

As for `Cc1ccc(Oc2ccc(N(C[C@H](Nc3ccccc3)C(=O)NO)S(C)(=O)=O)cc2)cc1` [Example 30, N-Hydroxy (2S)-3-{N-[4-(4-methylphenoxy)phenyl],N-methanesulfonylamino}-2-phenylaminopropionamide], the IC50 in experiment [2] is > 10 µM and 6.22 µM and 8.73 µM and 7.28 µM and 7.46 µM; in experiment [3], 18.6 nM and 15.4 nM and 15.3 nM and 5.27 nM and 9.5 nM and 9.9 nM and 7.96 nM.

As to `Cc1ccc(C#Cc2ccc(N(C[C@H](O)C(=O)NO)S(C)(=O)=O)cc2)cc1` [Example 63, N-Hydroxy (2S)-2-hydroxy-3-{N-[4-(4-methylphenylacetylene)phenyl],N-methanesulfonylamino}propionamide], the IC50 in experiment [2] is greater than 10 µM; in experiment [3] it was 28.2 nM and 65.9 nM.

As to `CS(=O)(=O)N(C[C@@H](C(=O)NO)N1CCc2ccccc2C1)c1ccc(Oc2ccc(C(F)(F)F)cc2)cc1` [Example 73, N-Hydroxy (2S)-2-(1,2,3,4-tetrahydroisoquinolin-2-yl)-3-{N-[4-(4-trifluoromethylphenoxy)phenyl],N-methanesulfonylamino}propionamide], the IC50 in experiment [2] was greater than 10 µM.

In the case of `CS(=O)(=O)N(C[C@H](NC(=O)C1CCOCC1)C(=O)NO)c1ccc(Oc2ccc(C(F)(F)F)cc2)cc1` [Example 93, N-Hydroxy (2S)-2-[(tetrahydropyran-4-yl)carbonylamino]-3-{N-[4-(4-trifluoromethylphenoxy)phenyl],N-methanesulfonylamino}propionamide], the IC50 in experiment [1] (setting [4]) was 54.1 nM; in experiment [3] it was 836 nM.

`CC(C)CC#Cc1ccc(N(C[C@@H](C(=O)NO)N2CCOCC2)S(C)(=O)=O)cc1` [Example 94, N-Hydroxy (2S)-3-{N-[4-(4-methylpentyn-1-yl)phenyl],N-methanesulfonylamino}-2-(morpholin-4-yl)propionamide]: the IC50 worked out at 113 nM in experiment [1] (setting [4]) and 106 nM in experiment [3].

Regarding `C[C@@H]1CN([C@@H](CN(c2ccc(Oc3ccc(Cl)cc3)cc2)S(C)(=O)=O)C(=O)NO)C[C@H](C)O1` [Example 95, N-Hydroxy (2S)-3-{N-[4-(4-chlorophenoxy)phenyl],N-methanesulfonylamino}-2-(cis-2,6-dimethylmorpholin-4-yl)propionamide], the IC50 in experiment [1] (setting [4]) was 0.57 nM and 0.64 nM and 0.17 nM; in experiment [3], 2.54 nM and 3.69 nM and 1.28 nM.

With `CS(=O)(=O)N(C[C@@H](C(=O)NO)N1CCCCC1)c1ccc(Oc2ccc(C(F)(F)F)cc2)cc1` [Example 96, N-Hydroxy (2S)-2-(piperidin-1-yl)-3-{N-[4-(4-trifluoromethylphenoxy)phenyl],N-methanesulfonylamino}propionamide], the values for the IC50 in experiment [1] (setting [4]) and in experiment [3] were 2.34 nM and 7.55 nM, respectively.

Take `CN(O)C(=O)[C@H](CN(c1ccc(Oc2ccc(C(F)(F)F)cc2)cc1)S(C)(=O)=O)N1CCOCC1` [Example 98, N-Hydroxy,N-methyl (2S)-2-(morpholin-4-yl)-3-{N-[4-(4-trifluoromethylphenoxy)phenyl],N-methanesulfonylamino}propionamide]: the figures for the IC50 in experiment [1] (setting [4]) and in experiment [3] were 159 nM and 447 nM, respectively.

In the case of `CC(C)O[C@@H](CN(c1ccc(Oc2ccc(C(F)(F)F)cc2)cc1)S(C)(=O)=O)C(=O)NO` [Example 99, N-Hydroxy (2S)-2-(2-propoxy)-3-{N-[4-(4-trifluoromethylphenoxy)phenyl],N-methanesulfonylamino}propionamide], the IC50 in experiment [1] (setting [4]) was 8.18 nM; in experiment [3] it was 50.3 nM.

Turning to `Cc1ccc(Oc2ccc(N(C[C@@H](C(=O)NO)N3C[C@@H](C)O[C@@H](C)C3)S(C)(=O)=O)cc2)cc1` [Example 100, N-Hydroxy (2S)-2-(cis-2,6-dimethylmorpholin-4-yl)-3-{N-[4-(4-methylphenoxy)phenyl],N-methanesulfonylamino}propionamide], the IC50 in experiment [1] (setting [4]) amounted to 0.68 nM; in experiment [3], 2.83 nM.

On to `CS(=O)(=O)N(C[C@H](O)C(=O)N(O)CCN1CCOCC1)c1ccc(Oc2ccc(Cl)cc2)cc1` [Example 101, N-Hydroxy,N-[2-(morpholin-4-yl)ethyl](2S)-2-hydroxy-3-{N-[4-(4-chlorophenoxy)phenyl],N-methanesulfonylamino}propionamide], for which the IC50 was found to be 206 nM in experiment [1] (setting [4]) and 1400 nM in experiment [3].

As for `C=CCN(O)C(=O)[C@H](CN(c1ccc(Oc2ccc(C)cc2)cc1)S(C)(=O)=O)N1C[C@@H](C)O[C@@H](C)C1` [Example 102, N-(3-Allyl),N-hydroxy (2S)-2-(cis-2,6-dimethylmorpholin-4-yl)-3-{N-[4-(4-methylphenoxy)phenyl],N-methanesulfonylamino}propionamide], the IC50 in experiment [1] (setting [4]) was 6.53 nM and 6.01 nM; in experiment [3] it was 23 nM and 24.8 nM.
